Source: patent publication US20230017045A1, “PYRIDINE AND PYRIMIDINE CARBOXYLATE HERBICIDES AND METHODS OF USE THEREOF” (Dow AgroSciences LLC, priority 2017, published 2023)

The compounds below were run on test plant species (assay: Post-emergent herbicidal activity test (greenhouse, foliar spray, visual growth reduction)). Settings: post-emergence, 336 h, ALOMY: blackgrass (Alopecurus myosuroides), 140 g ai/ha, 14 days after application, read-out: Visual Growth Reduction (%) 14 Days After Application, ALOMY.
Assay type: in vivo
Method in brief: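 Scoring used a 0 to 100 percent visual scale of growth reduction against solvent-treated controls, read 14 d after spraying. Applications went onto plants at first or second true leaf stage, 187 L/ha, with crop oil concentrate and X-77 surfactant in the carrier. Post-treatment watering was by subirrigation to avoid wash-off.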

Compound	pest or weed control at 140 g/ha [%]
O=C(O)c1nc(-c2ccc(C(F)(F)F)cc2F)c(F)cc1Cl [F160, 3-Chloro-5-fluoro-6-(2-fluoro-4-(trifluoromethyl)phenyl) picolinic acid]	75 to 84
COCC(F)(F)c1ccc(-c2ccc(Cl)c(C(=O)OC)n2)c(Cl)c1 [F177, methyl 3-chloro-6-(2-chloro-4-(1,1-difluoro-2-methoxyethyl)phenyl)picolinate]	0 to 29

Same assay, conditions: post-emergence, 336 h, AMARE: redroot pigweed (Amaranthus retroflexus), 140 g ai/ha, 14 days after application, read-out: Visual Growth Reduction (%) 14 Days After Application, AMARE

Compound	pest or weed control at 140 g/ha [%]
O=C(O)c1nc(-c2ccc(C(F)(F)F)cc2F)c(F)cc1Cl [F160, 3-Chloro-5-fluoro-6-(2-fluoro-4-(trifluoromethyl)phenyl) picolinic acid]	95 to 100
COCC(F)(F)c1ccc(-c2ccc(Cl)c(C(=O)OC)n2)c(Cl)c1 [F177, methyl 3-chloro-6-(2-chloro-4-(1,1-difluoro-2-methoxyethyl)phenyl)picolinate]	0 to 29

Same assay, conditions: post-emergence, 336 h, AVEFA: wild oat (Avena fatua), 140 g ai/ha, 14 days after application, read-out: Visual Growth Reduction (%) 14 Days After Application, AVEFA

Compound	pest or weed control at 140 g/ha [%]
O=C(O)c1nc(-c2ccc(C(F)(F)F)cc2F)c(F)cc1Cl [F160, 3-Chloro-5-fluoro-6-(2-fluoro-4-(trifluoromethyl)phenyl) picolinic acid]	85 to 94
COCC(F)(F)c1ccc(-c2ccc(Cl)c(C(=O)OC)n2)c(Cl)c1 [F177, methyl 3-chloro-6-(2-chloro-4-(1,1-difluoro-2-methoxyethyl)phenyl)picolinate]	0 to 29

Same assay, conditions: post-emergence, 336 h, CHEAL: lambsquarters (Chenopodium album), 140 g ai/ha, 14 days after application, read-out: Visual Growth Reduction (%) 14 Days After Application, CHEAL

Compound	pest or weed control at 140 g/ha [%]
O=C(O)c1nc(-c2ccc(C(F)(F)F)cc2F)c(F)cc1Cl [F160, 3-Chloro-5-fluoro-6-(2-fluoro-4-(trifluoromethyl)phenyl) picolinic acid]	95 to 100
COCC(F)(F)c1ccc(-c2ccc(Cl)c(C(=O)OC)n2)c(Cl)c1 [F177, methyl 3-chloro-6-(2-chloro-4-(1,1-difluoro-2-methoxyethyl)phenyl)picolinate]	60 to 74

Same assay, conditions: post-emergence, 336 h, CIRAR: canada thistle (Cirsium arvense), 140 g ai/ha, 14 days after application, read-out: Visual Growth Reduction (%) 14 Days After Application, CIRAR

Compound	pest or weed control at 140 g/ha [%]
O=C(O)c1nc(-c2ccc(C(F)(F)F)cc2F)c(F)cc1Cl [F160, 3-Chloro-5-fluoro-6-(2-fluoro-4-(trifluoromethyl)phenyl) picolinic acid]	85 to 94
COCC(F)(F)c1ccc(-c2ccc(Cl)c(C(=O)OC)n2)c(Cl)c1 [F177, methyl 3-chloro-6-(2-chloro-4-(1,1-difluoro-2-methoxyethyl)phenyl)picolinate]	45 to 59

Same assay, conditions: post-emergence, 336 h, CYPES: yellow nutsedge (Cyperus esculentus), 140 g ai/ha, 14 days after application, read-out: Visual Growth Reduction (%) 14 Days After Application, CYPES

Compound	pest or weed control at 140 g/ha [%]
O=C(O)c1nc(-c2ccc(C(F)(F)F)cc2F)c(F)cc1Cl [F160, 3-Chloro-5-fluoro-6-(2-fluoro-4-(trifluoromethyl)phenyl) picolinic acid]	60 to 74
COCC(F)(F)c1ccc(-c2ccc(Cl)c(C(=O)OC)n2)c(Cl)c1 [F177, methyl 3-chloro-6-(2-chloro-4-(1,1-difluoro-2-methoxyethyl)phenyl)picolinate]	0 to 29

Same assay, conditions: post-emergence, 336 h, DIGSA: crabgrass (Digitaria sanguinalis), 140 g ai/ha, 14 days after application, read-out: Visual Growth Reduction (%) 14 Days After Application, DIGSA

Compound	pest or weed control at 140 g/ha [%]
O=C(O)c1nc(-c2ccc(C(F)(F)F)cc2F)c(F)cc1Cl [F160, 3-Chloro-5-fluoro-6-(2-fluoro-4-(trifluoromethyl)phenyl) picolinic acid]	85 to 94
COCC(F)(F)c1ccc(-c2ccc(Cl)c(C(=O)OC)n2)c(Cl)c1 [F177, methyl 3-chloro-6-(2-chloro-4-(1,1-difluoro-2-methoxyethyl)phenyl)picolinate]	0 to 29

Same assay, conditions: post-emergence, 336 h, ECHCG: barnyardgrass (Echinochloa crus-galli), 140 g ai/ha, 14 days after application, read-out: Visual Growth Reduction (%) 14 Days After Application, ECHCG

Compound	pest or weed control at 140 g/ha [%]
O=C(O)c1nc(-c2ccc(C(F)(F)F)cc2F)c(F)cc1Cl [F160, 3-Chloro-5-fluoro-6-(2-fluoro-4-(trifluoromethyl)phenyl) picolinic acid]	95 to 100
COCC(F)(F)c1ccc(-c2ccc(Cl)c(C(=O)OC)n2)c(Cl)c1 [F177, methyl 3-chloro-6-(2-chloro-4-(1,1-difluoro-2-methoxyethyl)phenyl)picolinate]	0 to 29

Same assay, conditions: post-emergence, 336 h, IPOHE: ivy-leaf morning glory (Ipomoea hederacea), 140 g ai/ha, 14 days after application, read-out: Visual Growth Reduction (%) 14 Days After Application, IPOHE

Compound	pest or weed control at 140 g/ha [%]
O=C(O)c1nc(-c2ccc(C(F)(F)F)cc2F)c(F)cc1Cl [F160, 3-Chloro-5-fluoro-6-(2-fluoro-4-(trifluoromethyl)phenyl) picolinic acid]	95 to 100
COCC(F)(F)c1ccc(-c2ccc(Cl)c(C(=O)OC)n2)c(Cl)c1 [F177, methyl 3-chloro-6-(2-chloro-4-(1,1-difluoro-2-methoxyethyl)phenyl)picolinate]	60 to 74

Same assay, conditions: post-emergence, 336 h, KCHSC: kochia (Bassia scoparia), 140 g ai/ha, 14 days after application, read-out: Visual Growth Reduction (%) 14 Days After Application, KCHSC

Compound	pest or weed control at 140 g/ha [%]
O=C(O)c1nc(-c2ccc(C(F)(F)F)cc2F)c(F)cc1Cl [F160, 3-Chloro-5-fluoro-6-(2-fluoro-4-(trifluoromethyl)phenyl) picolinic acid]	95 to 100
COCC(F)(F)c1ccc(-c2ccc(Cl)c(C(=O)OC)n2)c(Cl)c1 [F177, methyl 3-chloro-6-(2-chloro-4-(1,1-difluoro-2-methoxyethyl)phenyl)picolinate]	45 to 59

Same assay, conditions: post-emergence, 336 h, ORYSA: rice (Oryza sativa), 140 g ai/ha, 14 days after application, read-out: Visual Growth Reduction (%) 14 Days After Application, ORYSA

Compound	pest or weed control at 140 g/ha [%]
O=C(O)c1nc(-c2ccc(C(F)(F)F)cc2F)c(F)cc1Cl [F160, 3-Chloro-5-fluoro-6-(2-fluoro-4-(trifluoromethyl)phenyl) picolinic acid]	60 to 74
COCC(F)(F)c1ccc(-c2ccc(Cl)c(C(=O)OC)n2)c(Cl)c1 [F177, methyl 3-chloro-6-(2-chloro-4-(1,1-difluoro-2-methoxyethyl)phenyl)picolinate]	0 to 29

Same assay, conditions: post-emergence, 336 h, SETFA: giant foxtail (Setaria faberi), 140 g ai/ha, 14 days after application, read-out: Visual Growth Reduction (%) 14 Days After Application, SETFA

Compound	pest or weed control at 140 g/ha [%]
O=C(O)c1nc(-c2ccc(C(F)(F)F)cc2F)c(F)cc1Cl [F160, 3-Chloro-5-fluoro-6-(2-fluoro-4-(trifluoromethyl)phenyl) picolinic acid]	85 to 94
COCC(F)(F)c1ccc(-c2ccc(Cl)c(C(=O)OC)n2)c(Cl)c1 [F177, methyl 3-chloro-6-(2-chloro-4-(1,1-difluoro-2-methoxyethyl)phenyl)picolinate]	0 to 29

Same assay, conditions: post-emergence, 336 h, SORVU: grain sorghum (Sorghum vulgare), 140 g ai/ha, 14 days after application, read-out: Visual Growth Reduction (%) 14 Days After Application, SORVU

Compound	pest or weed control at 140 g/ha [%]
O=C(O)c1nc(-c2ccc(C(F)(F)F)cc2F)c(F)cc1Cl [F160, 3-Chloro-5-fluoro-6-(2-fluoro-4-(trifluoromethyl)phenyl) picolinic acid]	95 to 100
COCC(F)(F)c1ccc(-c2ccc(Cl)c(C(=O)OC)n2)c(Cl)c1 [F177, methyl 3-chloro-6-(2-chloro-4-(1,1-difluoro-2-methoxyethyl)phenyl)picolinate]	30 to 44

Same assay, conditions: post-emergence, 336 h, STEME: common chickweed (Stellaria media), 140 g ai/ha, 14 days after application, read-out: Visual Growth Reduction (%) 14 Days After Application, STEME

Compound	pest or weed control at 140 g/ha [%]
O=C(O)c1nc(-c2ccc(C(F)(F)F)cc2F)c(F)cc1Cl [F160, 3-Chloro-5-fluoro-6-(2-fluoro-4-(trifluoromethyl)phenyl) picolinic acid]	30 to 44
COCC(F)(F)c1ccc(-c2ccc(Cl)c(C(=O)OC)n2)c(Cl)c1 [F177, methyl 3-chloro-6-(2-chloro-4-(1,1-difluoro-2-methoxyethyl)phenyl)picolinate]	0 to 29

Same assay, conditions: post-emergence, 336 h, TRZAS: wheat, spring (Triticum aestivum), 140 g ai/ha, 14 days after application, read-out: Visual Growth Reduction (%) 14 Days After Application, TRZAS

Compound	pest or weed control at 140 g/ha [%]
O=C(O)c1nc(-c2ccc(C(F)(F)F)cc2F)c(F)cc1Cl [F160, 3-Chloro-5-fluoro-6-(2-fluoro-4-(trifluoromethyl)phenyl) picolinic acid]	85 to 94
COCC(F)(F)c1ccc(-c2ccc(Cl)c(C(=O)OC)n2)c(Cl)c1 [F177, methyl 3-chloro-6-(2-chloro-4-(1,1-difluoro-2-methoxyethyl)phenyl)picolinate]	0 to 29
